Tests used:
MEK = MEK phosphorylation in dermal fibroblasts, Western blot; type: cell-based, human; details: 100 μg/ml
Description: Cells were harvested by Trypsin/EDTA and lysed with cell lysis buffer containing 50 mM Tris-HCl (pH7.40), 150 mM NaCl, 10 mM EDTA, 5 mM EGTA, 1% TritonX-100™, 0.5% Igepal CA-630, 0.025% NaN3 and protease inhibitor cocktail (Sigma™). Cell debris was removed by centrifugation at 20,000×g for 10 minutes. The protein concentration in supernatant was determined using the MicroBCA™ method (Pierce™, Rockford, Ill.). Proteins in supernatant were mixed with protein sample loading buffer (final concentration: 60 mM Tris-HCl (pH 6.80), 2% SDS, 10% glycerol, 1.5% β-mercaptoethanol, 0.002% bromophenol blue) and size fractioned by 10% of SDS-polyacrylamide gel. After proteins were transferred onto nitrocellulose membrane by iBlot™ (Invitrogen Life Technologies™), non-specific binding were blocked with phosphate buffer saline twenty 20 (PBS-T) containing 5% skim milk for 1 hour. The membrane was then incubated with primary antibody overnight. After incubation with a secondary antibody for 1 hour, protein bands were visualized by an enhanced chemiluminescence (ECL™) detection system (Santa Cruz Biotechnology™, Santa Cruz, Calif.). […]

human dermal fibroblasts = assay: MTT proliferation assay of human dermal fibroblasts; type: cell-based; details: up to 150 μg/ml, 48 hours
Description: The effect of kynurenine on human dermal fibroblast proliferation was detected by MTT [3-(4,5-Dimethylthiazol-2-yl)-2,5-diphenyltetrazolium bromide] assay. In brief, 10,000 cells were seeded on a 24 well-plate and incubated with different concentrations of kynurenine for 48 hours. Media were removed and 0.2 ml of MTT (5 mg/ml in DMEM containing 2% FBS) was added. Cells were incubated with MIT for 4 hours. After washing 3 times with PBS, 0.2 ml of DMSO was added to dissolve the crystals. Absorbance was measured at 570 nm.

ERK1/2 = assay: Human phospho-kinase array in dermal fibroblasts; type: cell-based; details: 100 μg/ml, after 1 hour of treatment
Description: Protein phosphorylation was evaluated using the Human Phospho-Kinase Array™ (R&D System™) according to the manufacturer's instructions. Briefly, capture and control antibodies were spotted in duplicate on nitrocellulose membranes (total 46 kinase phosphorylation sites). Cell lysates (300 μg of total protein per array) were incubated with array overnight. The array was washed to remove unbound proteins, followed by incubation with the cocktail of biotinylated detection antibodies. After incubation with streptavidin-HPR for 30 minutes, signals were visualized by ECL detection system (Santa Cruz™). Blots were analyzed by densitometry, and protein Phosphorylation was Normalized to a Positive Control which was Represented in Each Membrane.

HACAT = assay: MMP-1 expression in keratinocyte cell line HACAT, Western blot; type: cell-based, human; details: 12.5 to 150 μg/ml, 48 hours
Description: The squamous cell carcinoma (UMSCC) cell line derived from patients with head and neck cancer (ATCC™, Manassas, Va.) were maintained in RPMI-1640 medium with 10% FBS. The Human keratinocyte cell line HACAT (ATCC) and the carcinomic human alveolar basal epithelial cell line A549 (ATCC™) were cultured in DMEM with 10% FBS. The diploid lung fibroblasts IMR-90 (ATCC™) were maintained in Minimum Essential Medium (MEM, Invitrogen™) with 10% FBS.
Similarly, other cells such as synoviocytes, IMR-90, keratinocytes, UMSCC and A549 were treated with kynurenine at concentrations of 12.5 to 150 μg/ml in appropriate media for each cell type as described above for 48 hours. Cells were then harvested for western blot analysis.
Cells were harvested by Trypsin/EDTA and lysed with cell lysis buffer containing 50 mM Tris-HCl (pH7.40), 150 mM NaCl, 10 mM EDTA, 5 mM EGTA, 1% TritonX-100™, 0.5% Igepal CA-630, 0.025% NaN3 and protease inhibitor cocktail (Sigma™). Cell debris was removed by centrifugation at 20,000×g for 10 minutes. The protein concentration in supernatant was determined using the MicroBCA™ method (Pierce™, Rockford, Ill.). Proteins in supernatant were mixed with protein sample loading buffer (final concentration: 60 mM Tris-HCl (pH 6.80), 2% SDS, 10% glycerol, 1.5% β-mercaptoethanol, 0.002% bromophenol blue) and size fractioned by 10% of SDS-polyacrylamide gel. […]

MMP-1 = MMP-1 expression in human dermal fibroblasts, Western blot; type: cell-based; details: for MMP-1 expression: 48 hours
Description: Cells were then harvested after 48 hours and western blot analysis was performed.
Cells were then harvested by trypsinization and western blot analysis was performed.
Cells were harvested by Trypsin/EDTA and lysed with cell lysis buffer containing 50 mM Tris-HCl (pH7.40), 150 mM NaCl, 10 mM EDTA, 5 mM EGTA, 1% TritonX-100™, 0.5% Igepal CA-630, 0.025% NaN3 and protease inhibitor cocktail (Sigma™). Cell debris was removed by centrifugation at 20,000×g for 10 minutes. The protein concentration in supernatant was determined using the MicroBCA™ method (Pierce™, Rockford, Ill.). Proteins in supernatant were mixed with protein sample loading buffer (final concentration: 60 mM Tris-HCl (pH 6.80), 2% SDS, 10% glycerol, 1.5% β-mercaptoethanol, 0.002% bromophenol blue) and size fractioned by 10% of SDS-polyacrylamide gel. After proteins were transferred onto nitrocellulose membrane by iBlot™ (Invitrogen Life Technologies™), non-specific binding were blocked with phosphate buffer saline twenty 20 (PBS-T) containing 5% skim milk for 1 hour. The membrane was then incubated with primary antibody overnight. After incubation with a secondary antibody for 1 hour, protein bands were visualized by an enhanced chemiluminescence (ECL™) detection system (Santa Cruz Biotechnology™, Santa Cruz, Calif.). The primary antibodies used in this study were: mouse monoclonal anti-human MMP-1 (R&D Systems™, Minneapolis, Minn.), mouse monoclonal anti-human MMP-3 (R&D System™), rabbit monoclonal anti-human MMP-2 (Epitomics™, Burlingame, Calif.), rabbit polyclonal anti-phospho-MEK1/2 (Ser217/221™) (Cell Signaling Technology™, Danvers, Mass.), rabbit polyclonal anti-phospho-p44/42 MAPK (Thr202/Tyr204) (Cell Signaling Technology™), monoclonal anti-β-actin (Sigma™), and mouse anti-type-1 procollagen (Developmental Studies Hybridoma Bank™, Iowa City, Iowa). The secondary antibodies were either goat anti-mouse IgG (H+L) HPR conjugate or goat anti-rabbit IgG (H+L) HPR conjugate (Bio-rad Laboratory™ (Mississauga, ON, Canada). Secondary antibodies were used at a concentration of 1:3000.

MMPs = assay: MMP activity in conditioned media of fibroblasts, SensoLyte 520 generic MMP assay (FRET); type: cell-based, human; details: 50 μg/ml, 48 hours
Description: The activity of MMPs was assessed using a F-FAM/QXL™ 520 fluorescence resonance energy transfer (FRET) peptide as the MMP substrate (SensoLyte 520™ generic MMP assay kit, AnaSpec, Inc.™, Fremont, Calif.) according to the manufacturer's protocol. In brief, cells were treated with or without 50 μg/ml of kynurenine for 48 hours. Conditioned media were collected and incubated with 1 mM of APMA (4-aminophenyl-mercuric acetate, in component C, AnaSpect™) at 37° C. for 3 hrs. After activation MMPs with APMA, 50 μl/well in 96-well plate of conditioned media was mixed with 50 μl of MMP substrate solution. After incubated at room temperature for 60 minutes, the fluorescence intensity at EX/EM=490 nm/520 nm in each sample including the substrate control were measured using Infinite F500™ fluorescence microplate reader (Tecan Group Ltd™, Morrisville, N.C.).

ERK1/2 activation (phospho-kinase array) (ERK1/2): activated
SMILES: Nc1ccccc1C(=O)CC(N)C(=O)O (racemic) [kynurenine]
time of peak MEK activation (MEK): 8 h
MEK phosphorylation (MEK; different times): detection of the ERK1/2 upstream signal molecule MEK phosphorylation
fibroblast proliferation (MTT) (human dermal fibroblasts): no significant effect
MMP-1 expression versus untreated controls (HACAT): did not significantly differ
MMP1 protein expression 48 hours after treatment removal (MMP-1; 100 μg/ml for 48 hours, then 48 hours after removal): gradually reduced to normal levels
MMP1 expression versus untreated cells after treatment removal (MMP-1; 100 μg/ml for 48 hours, then another 24 hours after removal): remained significantly higher
MMP1 expression (MMP-1; 100 μg/ml, at 48 hours after treatment): marked increase
MMP-1 expression (MMP-1; 25-150 μg/ml): significantly increased
concentration that could stimulate MMP-1 expression (as little as) (MMP-1; dermal fibroblasts, data not shown): 12.5 µg/mL
MMP-1 expression (MMP-1; kynurenine isoforms, 50 μg/ml): increase
mean activity of MMPs in conditioned media versus control media (MMPs): significantly higher
